Data reported in patent publication US7560117B2, “Foamy virus mutant reverse transcriptase” (priority 2001, dated 2009).

How the values were obtained:
HIV-1 RT = HIV-1 RT (Human immunodeficiency virus type 1 group M subtype B, UniProt P03366); assay: 3TCTP inhibition assay, M13 template, radiolabeled dCTP incorporation; settings: 1.0 μM 3TCTP; activity without drug set at 100%
Procedure: The 3TCTP inhibition assays were performed using the M13 template and the −47 primer. The −47 sequencing primer was annealed to the single stranded M13mp18 DNA by heating to 95° C. and slowly cooling to room temperature. The template-primer was extended by adding 1.0 μg of RT in 25 mM Tris(pH 8.0), 75 mM KCl, 8.0 mM MgCl2, 100 μg/ml BSA, 10 mM CHAPS, 10 μM each of dATP, dGTP, and dTTP, 2.0 μM [α-^32P]dCTP, and the indicated concentrations of 3TCTP (Moravek Biochemicals, Brea, Calif.) in a 100 μl reaction volume. The mixture was incubated at 37° C. for 30 min, then halted by the addition of 3 ml of ice-cold trichloroacetic acid (TCA) and the precipitated DNA was collected by suction filtration through Whatman GF/C glass filters. The amount of incorporated radioactivity was determined by liquid scintillation counting.
Samples were TCA precipitated, bound to glass filters, and incorporation of radiolabeled dCTP was measured. […] These levels of RT activity in the absence of drug were set at 100% activity for each recombinant RT.

PFV [1] = settings: previous studies; cited from earlier work
PFV [2] = settings: virus producing cells treated with inhibitor
PFV [3] = type: cell-based, Prototype Foamy Virus (SFVcpz(hu))

Structure (SMILES)	specific inhibition of production of infectious PFV particles (PFV [1])	other results
Nc1ccn([C@@H]2CS[C@H](COP(=O)(O)OP(=O)(O)OP(=O)(O)O)O2)c(=O)n1 [3TCTP]		activity retained by HIV-1 RT (HIV-1 RT): 37%
Nc1ccn([C@@H]2CS[C@H](CO)O2)c(=O)n1 [3TC]	not	
Cc1cn([C@H]2C[C@H](N=[N+]=[N-])[C@@H](CO)O2)c(=O)[nH]c1=O [AZT]	specific inhibition was demonstrated	specific decrease in infectivity (PFV [2]): greater than 10 fold
Nc1nc(=O)n(C2CSC(CO)O2)cc1F (stereo not drawn) [FTC, beta-2′,3′-dideoxy-5-fluoro-3′-thiacytidine]		Titer Relative to No-Drug Control, Pretreated (PFV [3]): 122
O=c1[nH]cnc2c1ncn2[C@H]1CC[C@@H](CO)O1 [ddI]	not	
